The results in this text go back to US20240158446A1, “CYCLIC COMPOUND HAVING SELECTIVE INHIBITORY ACTION ON KRAS OVER HRAS AND NRAS” (CHUGAI SEIYAKU KABUSHIKI KAISHA, priority 2021, published 2024).

Read-outs that look alike come from different tables or passages of the source.

The target in assay [1] is GDP-bound KRAS wild-type protein (Homo sapiens, UniProt P01116). Briefly: Binding to KRAS by surface plasmon resonance (SPR), Single Cycle Kinetics. To be noted: SPR, Single Cycle Kinetics. On the technique in general: SPR reads the build-up and loss of mass on a sensor chip optically.
Assay [2] addresses GDP-bound NRAS wild-type protein (Homo sapiens, UniProt P01111). Put plainly: Binding to NRAS by surface plasmon resonance (SPR), Single Cycle Kinetics. The note with it: SPR; for NRAS/KRAS (ratio of KD value for NRAS to KD value for KRAS): GDP-bound NRAS wild-type protein vs GDP-bound KRAS wild-type protein.
In assay [3] the test system is human lung cancer strain NCI-H441. To be noted: read-out: NCI-H441 cell proliferation inhibitory activity, 50% proliferation inhibitory concentration (IC50 value); NCI-H441, four days, CellTiter-Glo. A general note: In ATP-based viability assays light output follows the ATP content of the culture.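 Further: cell proliferation inhibition after four days measured by CellTiter-Glo.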
Assay [4] addresses GDP-bound HRAS wild-type protein (Homo sapiens, UniProt P01112). Briefly: Binding to HRAS by surface plasmon resonance (SPR), Single Cycle Kinetics. To be noted: SPR; for HRAS/KRAS (ratio of KD value for HRAS to KD value for KRAS): GDP-bound HRAS wild-type protein vs GDP-bound KRAS wild-type protein.
Setting [5] is: 1:1 binding model, read-out: KD value with respect to GDP-bound KRAS wild-type protein.
Where [6] appears, read: GDP-bound KRAS wild-type protein, read-out: KRAS KD.

Chain of GDP-bound NRAS wild-type protein (P01111 whole entry): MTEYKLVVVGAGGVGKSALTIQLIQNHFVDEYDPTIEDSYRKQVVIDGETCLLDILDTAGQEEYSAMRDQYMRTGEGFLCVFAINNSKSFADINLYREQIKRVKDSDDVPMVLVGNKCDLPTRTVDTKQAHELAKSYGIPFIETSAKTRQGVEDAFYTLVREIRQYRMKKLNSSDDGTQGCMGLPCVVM
Chain of GDP-bound HRAS wild-type protein (P01112 whole entry): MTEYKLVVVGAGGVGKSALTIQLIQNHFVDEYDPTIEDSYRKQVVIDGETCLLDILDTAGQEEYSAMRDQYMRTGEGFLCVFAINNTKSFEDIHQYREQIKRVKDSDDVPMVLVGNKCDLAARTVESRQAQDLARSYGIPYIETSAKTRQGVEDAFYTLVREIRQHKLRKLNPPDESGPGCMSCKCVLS
Chain of GDP-bound KRAS wild-type protein (P01116 whole entry): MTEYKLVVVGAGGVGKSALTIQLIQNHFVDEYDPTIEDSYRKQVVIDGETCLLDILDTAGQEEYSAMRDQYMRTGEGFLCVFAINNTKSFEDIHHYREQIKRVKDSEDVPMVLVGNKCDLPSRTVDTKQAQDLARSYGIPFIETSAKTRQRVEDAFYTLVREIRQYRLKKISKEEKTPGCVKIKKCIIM

A word on the Kd: it is the constant that tells how readily two partners part at equilibrium. Turning to `CCC[C@H]1C(=O)N[C@@H]([C@@H](C)CC)C(=O)N2CCC[C@H]2C(=O)N(C)[C@H]2C/C=C\CCN(C2=O)[C@@H](Cc2ccc(C)cc2)C(=O)N(C)CC(=O)N[C@@H](CCc2ccc(C(F)(F)F)c(OC)c2)C(=O)N2C[C@H](OCC)C[C@H]2C(=O)N(C)C2(CCC2)C(=O)N(C)[C@@H](C2CCCC2)C(=O)N(C)[C@H](C(=O)N2CCCCC2)CC(=O)N1C` [PP3100, (1S,4S,10S,13S,17S,20S,26S,28R,32S,38S,42Z)-20-cyclopentyl-28-ethoxy-32-[2-[3-methoxy-4-(trifluoromethyl)phenyl]ethyl]-2,14,18,21,24,36-hexamethyl-10-[(1S)-1-methylpropyl]-17-(piperidine-1-carbonyl)-13-propyl-38-(p-tolylmethyl)spiro[2,8,11,14,18,21,24,30,33,36,39-undecazatetracyclo[37.5.1.0^4,8.0^26,30]pentatetracont-42-ene-23,1′-cyclobutane]-3,9,12,15,19,22,25,31,34,37,45-undecone], the Kd in assay [1] (setting [5]) is 0.29 nM. Besides, in assay [1] (setting [6]), the Kd turned out to be 0.29 nM. In assay [2], the “NRAS/KRAS (ratio of KD value for NRAS to KD value for KRAS)” value was “A (a compound having 10 or more and less than 20 is denoted as A)”; the “ratio of the KD value with respect to GDP-bound NRAS wild-type protein to the KD value with respect to KRAS” value was “A (a compound having 10 or more and less than 20 is denoted as A)”. In assay [3], the IC50 turned out to be 15 nM. Moreover, in assay [4], the “HRAS/KRAS (ratio of KD value for HRAS to KD value for KRAS)” value is “B (a compound having 3 or more and less than 10 is denoted as B)”; the “ratio of the KD value with respect to GDP-bound HRAS wild-type protein to the KD value with respect to KRAS” value was “B (a compound having 3 or more and less than 10 is denoted as B)”.
Take `CCC[C@H]1C(=O)N[C@@H]([C@@H](C)CC)C(=O)N2CCC[C@H]2C(=O)N(C)[C@H]2C/C=C\CCN(C2=O)[C@@H](Cc2ccc(C(F)(F)F)cc2)C(=O)N(C)CC(=O)N[C@@H](CCc2ccc(C(F)(F)F)c(OC)c2)C(=O)N2C[C@H](OCC)C[C@H]2C(=O)N(C)C2(CCC2)C(=O)N(C)[C@@H](C2CCCC2)C(=O)N(C)[C@H](C(=O)N2CCCC2)CC(=O)N1C` [PP3101]: the dissociation constant Kd in assay [1] (setting [5]) came out at 0.27 nM. Besides, the Kd in assay [1] (setting [6]) is 0.27 nM. Further, in assay [2], the “NRAS/KRAS (ratio of KD value for NRAS to KD value for KRAS)” value was “A (a compound having 10 or more and less than 20 is denoted as A)”; the “ratio of the KD value with respect to GDP-bound NRAS wild-type protein to the KD value with respect to KRAS” value was “A (a compound having 10 or more and less than 20 is denoted as A)”. Moreover, the IC50 in assay [3] came to 4.9 nM. In assay [4], the “HRAS/KRAS (ratio of KD value for HRAS to KD value for KRAS)” value is “A (a compound having 10 or more and less than 20 is denoted as A)”; the “ratio of the KD value with respect to GDP-bound HRAS wild-type protein to the KD value with respect to KRAS” value was “A (a compound having 10 or more and less than 20 is denoted as A)”.
For the compound `CCC[C@H]1C(=O)N[C@@H]([C@@H](C)CC)C(=O)N2CCC[C@H]2C(=O)N(C)[C@H]2C/C=C\CCN(C2=O)[C@@H](Cc2ccc(C)cc2)C(=O)N(C)CC(=O)N[C@@H](CCc2ccc(C(F)(F)F)c(OC)c2)C(=O)N2C[C@H](OCC)C[C@H]2C(=O)N(C)C2(CCC2)C(=O)N(C)[C@@H](C2CCCC2)C(=O)N(C)[C@H](C(=O)N2CCCC2)CC(=O)N1C` [PP3102, (1S,4S,10S,13S,17S,20S,26S,28R,32S,38S,42Z)-20-cyclopentyl-28-ethoxy-32-[2-[3-methoxy-4-(trifluoromethyl)phenyl]ethyl]-2,14,18,21,24,36-hexamethyl-10-[(1S)-1-methylpropyl]-13-propyl-38-(p-tolylmethyl)-17-(pyrrolidine-1-carbonyl)spiro[2,8,11,14,18,21,24,30,33,36,39-undecazatetracyclo[37.5.1.0^4,8.0^26,30]pentatetracont-42-ene-23,1′-cyclobutane]-3,9,12,15,19,22,25,31,34,37,45-undecone], the Kd in assay [1] (setting [5]) was 0.18 nM. For the same compound, in assay [1] (setting [6]), the Kd was 0.18 nM. Besides, in assay [2], the “NRAS/KRAS (ratio of KD value for NRAS to KD value for KRAS)” value was “A (a compound having 10 or more and less than 20 is denoted as A)”; the “ratio of the KD value with respect to GDP-bound NRAS wild-type protein to the KD value with respect to KRAS” value is “A (a compound having 10 or more and less than 20 is denoted as A)”. In addition, the IC50 in assay [3] came out at 6.7 nM. Also, in assay [4], the “HRAS/KRAS (ratio of KD value for HRAS to KD value for KRAS)” value is “A (a compound having 10 or more and less than 20 is denoted as A)”; the “ratio of the KD value with respect to GDP-bound HRAS wild-type protein to the KD value with respect to KRAS” value was “A (a compound having 10 or more and less than 20 is denoted as A)”.
`CCC[C@H]1C(=O)N[C@@H]([C@@H](C)CC)C(=O)N(C)CC(=O)N(C)[C@H]2C/C=C\CCN(C2=O)[C@@H](Cc2ccc(C)cc2)C(=O)N(C)CC(=O)N[C@@H](CCc2ccc(C(F)(F)F)c(OC)c2)C(=O)N2C[C@H](OCC)C[C@H]2C(=O)N(C)C2(CCC2)C(=O)N(C)[C@@H](C2CCCC2)C(=O)N(C)[C@H](C(=O)N2CCCCC2)CC(=O)N1C` [PP3104, (2S,8S,12R,14S,20S,23S,27S,30S,36S,38Z)-20-cyclopentyl-12-ethoxy-8-[2-[3-methoxy-4-(trifluoromethyl)phenyl]ethyl]-4,16,19,22,26,32,35-heptamethyl-30-[(1S)-1-methylpropyl]-23-(piperidine-1-carbonyl)-27-propyl-2-(p-tolylmethyl)spiro[1,4,7,10,16,19,22,26,29,32,35-undecazatricyclo[34.5.1.0^10,14]dotetracont-38-ene-17,1′-cyclobutane]-3,6,9,15,18,21,25,28,31,34,42-undecone]: in assay [1] (setting [5]), the Kd was 0.097 nM. In assay [1] (setting [6]), the Kd worked out at 0.097 nM. Moreover, in assay [2], the “NRAS/KRAS (ratio of KD value for NRAS to KD value for KRAS)” value is “A (a compound having 10 or more and less than 20 is denoted as A)”; the “ratio of the KD value with respect to GDP-bound NRAS wild-type protein to the KD value with respect to KRAS” value was “A (a compound having 10 or more and less than 20 is denoted as A)”. In addition, the IC50 in assay [3] is 3.8 nM. For the same compound, in assay [4], the “HRAS/KRAS (ratio of KD value for HRAS to KD value for KRAS)” value was “A (a compound having 10 or more and less than 20 is denoted as A)”; the “ratio of the KD value with respect to GDP-bound HRAS wild-type protein to the KD value with respect to KRAS” value was “A (a compound having 10 or more and less than 20 is denoted as A)”.
On to `CCC[C@H]1C(=O)N[C@@H]([C@@H](C)CC)C(=O)N(C)CC(=O)N(C)[C@H]2C/C=C\CCN(C2=O)[C@@H](Cc2ccc(C(F)(F)F)cc2)C(=O)N(C)CC(=O)N[C@@H](CCc2ccc(C(F)(F)F)c(OC)c2)C(=O)N2C[C@H](OCC)C[C@H]2C(=O)N(C)C2(CCC2)C(=O)N(C)[C@@H](C2CCCC2)C(=O)N(C)[C@H](C(=O)N2CCCC2)CC(=O)N1C` [PP3105, (2S,8S,12R,14S,20S,23S,27S,30S,36S,38Z)-20-cyclopentyl-12-ethoxy-8-[2-[3-methoxy-4-(trifluoromethyl)phenyl]ethyl]-4,16,19,22,26,32,35-heptamethyl-30-[(1S)-1-methylpropyl]-27-propyl-23-(pyrrolidine-1-carbonyl)-2-[[4-(trifluoromethyl)phenyl]methyl]spiro[1,4,7,10,16,19,22,26,29,32,35-undecazatricyclo[34.5.1.0^10,14]dotetracont-38-ene-17,1′-cyclobutane]-3,6,9,15,18,21,25,28,31,34,42-undecone], for which the Kd in assay [1] (setting [5]) was 0.06 nM. The Kd in assay [1] (setting [6]) turned out to be 0.06 nM. In addition, in assay [2], the “NRAS/KRAS (ratio of KD value for NRAS to KD value for KRAS)” value is “AA (a compound having 20 or more is denoted as AA)” and the “ratio of the KD value with respect to GDP-bound NRAS wild-type protein to the KD value with respect to KRAS” value is on record as “AA (a compound having 20 or more is denoted as AA)”. The IC50 in assay [3] worked out at 2.5 nM. In assay [4], the “HRAS/KRAS (ratio of KD value for HRAS to KD value for KRAS)” value is “A (a compound having 10 or more and less than 20 is denoted as A)”; the “ratio of the KD value with respect to GDP-bound HRAS wild-type protein to the KD value with respect to KRAS” value is “A (a compound having 10 or more and less than 20 is denoted as A)”.
Take `CCC[C@H]1C(=O)N[C@@H]([C@@H](C)CC)C(=O)N(C)CC(=O)N(C)[C@H]2C/C=C\CCN(C2=O)[C@@H](Cc2ccc(C)cc2)C(=O)N(C)CC(=O)N[C@@H](CCc2ccc(C(F)(F)F)c(OC)c2)C(=O)N2C[C@H](OCC)C[C@H]2C(=O)N(C)C2(CCC2)C(=O)N(C)[C@@H](C2CCCC2)C(=O)N(C)[C@H](C(=O)N2CCCC2)CC(=O)N1C` [PP3106, (2S,8S,12R,14S,20S,23S,27S,30S,36S,38Z)-20-cyclopentyl-12-ethoxy-8-[2-[3-methoxy-4-(trifluoromethyl)phenyl]ethyl]-4,16,19,22,26,32,35-heptamethyl-30-[(1S)-1-methylpropyl]-27-propyl-2-(p-tolylmethyl)-23-(pyrrolidine-1-carbonyl)spiro[1,4,7,10,16,19,22,26,29,32,35-undecazatricyclo[34.5.1.0^10,14]dotetracont-38-ene-17,1′-cyclobutane]-3,6,9,15,18,21,25,28,31,34,42-undecone]: the Kd in assay [1] (setting [5]) worked out at 0.048 nM. In addition, in assay [1] (setting [6]), the dissociation constant (Kd) came to 0.048 nM. Also, in assay [2], the “NRAS/KRAS (ratio of KD value for NRAS to KD value for KRAS)” value was “A (a compound having 10 or more and less than 20 is denoted as A)”; the “ratio of the KD value with respect to GDP-bound NRAS wild-type protein to the KD value with respect to KRAS” value was “A (a compound having 10 or more and less than 20 is denoted as A)”. For the same compound, the IC50 in assay [3] turned out to be 2.9 nM. Besides, in assay [4], the “HRAS/KRAS (ratio of KD value for HRAS to KD value for KRAS)” value was “A (a compound having 10 or more and less than 20 is denoted as A)”; the “ratio of the KD value with respect to GDP-bound HRAS wild-type protein to the KD value with respect to KRAS” value is “A (a compound having 10 or more and less than 20 is denoted as A)”.
